Marks after values point to notes of the source that are not given here.
How the values were obtained:
control mice = test: Radiant heat tail-flick antinociception, control (LPS-untreated) mice; format: in vivo
Description: Pain is a hallmark of many inflammatory conditions.

[1] = system: CFA-induced mechanical hyperalgesia mouse model; test: Complete Freund's Adjuvant (CFA) mechanical hyperalgesia, electronic von Frey; format: in vivo, mice; settings: i.t.
Description: Before injection of CFA baseline withdrawal thresholds (g) were obtained from a mechanical stimulation using an electronic von Frey anesthesiometer (IITC Life Sciences, Woodland Hills, USA) by applying an accurate force on both left and right hind paw. (2,3) The left hindpaws were then injected (intraplantar) with a 50% solution of CFA (10 μg, Sigma-Aldrich) in water while the mice are under isoflurane anesthesia (10). Twenty-four hours later the withdrawal threshold (g) was again measured prior to and after the test compound i.t. at 10, 20, 30 and 60 minutes to determine the peak time and subsequent ED50. % MPE was calculated ((Time-point withdrawal threshold with drug−CFA withdrawal threshold)/(Day 0 withdrawal threshold−CFA withdrawal threshold))*100 (Wade, C. L., et al., PLoS One 2013, 8, e79239/1-e79239/11, 11 pp; Martinov, T., et al., J Vis Exp 2013, e51212; Sorge, R. E., et al., J. Neurosci. 2011, 31, 15450-15454).

LPS-pretreated mice = test: Effect of minocycline on MCC22 antinociception in LPS-pretreated mice (tail flick); format: in vivo; settings: for MPE after minocycline: MCC22 1 pmol/mouse i.t.
Description: Effect of Minocycline in Mice Pretreated by LPS and Blockage of Antinociception of MCC22.
Three separate groups of mice (n=8) were pretreated with 1 mg/kg of LPS (i.p.). At 24 hours the baseline antinociception was measured using the tail flick assay to calculate % MPE. […] […] The dose used for MCC22 is a hundred times the ED50 dose of LPS pretreated mice with MCC22.

Cc1ccc(N(CCCN2CCC(Cc3ccc(C(N)=O)cc3)CC2)C(=O)C2CCN(C(=O)COCC(=O)NCCCCCCCCCCNC(=O)COCC(=O)N[C@H]3CC[C@@]4(O)C5Cc6ccc(O)c7c6[C@@]4(CCN5C)[C@H]3O7)CC2)cc1Cl [Compound 3e, N-(3-(4-(4-carbamoylbenzyl)piperidin-1-yl)propyl)-N-(3-chloro-4-methylphenyl)-1-(22-(((4aS,7S,7aR,12bS)-4a,9-dihydroxy-3-methyl-2,3,4,4a,5,6,7,7a-octahydro-1H-4,12-methanobenzofuro[3,2-e]isoquinolin-7-yl)amino)-5,18,22-trioxo-3,20-dioxa-6,17-diazadocosan-1-oyl)piperidine-4-carboxamide]
CONTROLS i.c.v./i.t. ratio (control mice; control mice): 10.93^e
percent maximal possible effect at highest dose measured (control mice; control mice, i.c.v., 500 pmol/mouse): 49.7 ± 14.9%
acute tolerance (ED80 retested 24 hours later) (control mice; control mice, i.t.): (23.1-90.8)^b
CONTROLS ED50 (CI) i.t. (control mice; control mice, i.t., tail flick): 45.8 pmol/mouse
CONTROLS i.c.v./i.t. ratio (control mice; control mice, listed as MCC22): 11
potency increase over 3c (control mice; i.t., LPS-untreated control mice): ~4 fold
FIG. 4 naïve/MCC22 (value with interval) (control mice; naïve mice): 45.75 (23.05-90.81)
ED50 values (95% CI) CFA (mechanical) [1]: 0.019 pmol/mouse
MPE after minocycline (LPS-pretreated mice; 60 min after minocycline 45 mg/kg i.p., LPS pretreated): 100%
MPE after minocycline (LPS-pretreated mice; 120 min after minocycline 45 mg/kg i.p., LPS pretreated): 52.04%±17.04
MPE after minocycline (LPS-pretreated mice; 240 min after minocycline 45 mg/kg i.p., LPS pretreated): 10.7%±5.17
% MPE (LPS-pretreated mice; LPS 24 hours, minocycline 4 hours, 1000 pmol/mouse MCC22): 49.35±14.38 % MPE
FIG. 4 LPS/minocycline/MCC22 (value with interval) (LPS-pretreated mice; LPS pretreated, minocycline 45 mg/kg i.p. prior to testing): 1016 (54-1558)

From patent publication US10464941B2, “Therapeutic compounds” (REGENTS OF THE UNIVERSITY OF MINNESOTA, priority 2015, dated 2019)
